# Assay results taken from PubChem BioAssay (NCI).
#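 Grown in 96-well plates, cells were treated for 48 hours with each compound at five concentrations. Insufficient inhibition: endpoint recorded as highest concentration tested. GI50 is the concentration that inhibits growth by half. TGI marks complete inhibition of growth.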
# Columns and labels:
# Test in all cases: DTP human tumour cell line panel, 48 h
# [1] = tested on: A549 NSCLC
# [2] = tested on: NCI-H226 lung
# [3] = tested on: MALME-3M melanoma
# [4] = tested on: OVCAR-4 ovarian
# [5] = tested on: SW-620 colon
# [6] = tested on: LOX IMVI melanoma
# [7] = tested on: SK-MEL-5 melanoma
# [8] = tested on: NCI-H460 lung
# [9] = tested on: SK-MEL-2 melanoma
# [10] = tested on: MDA-MB-435
SMILES,TGI [1] [µM],TGI [2] [µM],TGI [3] [µM],TGI [4] [µM],TGI [5] [µM],TGI [6] [µM],TGI [7] [µM],TGI [8] [µM],TGI [9] [µM],GI50 [10] [µM],TGI [10] [µM],GI50 [1] [µM],GI50 [2] [µM],GI50 [3] [µM],GI50 [4] [µM],GI50 [5] [µM],GI50 [6] [µM],GI50 [7] [µM],GI50 [8] [µM],GI50 [9] [µM]
CC(=O)CC(=O)CCC(=O)Nc1cccc(C(F)(F)F)c1,> 100,> 100,> 100,> 100,> 100,> 100,> 100,> 100,> 100,–,–,–,–,–,–,–,–,–,–,–
N#C/C(=C1\OC(=N)C(c2ccc(Cl)cc2Cl)C1=O)c1ccc(Cl)cc1Cl (stereo not drawn),> 100,> 100,> 100,> 100,> 100,> 100,> 100,–,> 100,–,–,–,–,–,–,–,–,–,–,–
COc1cc2c(cc1NC(=O)C(Cl)Cl)-c1ccc(NC(=O)C(Cl)Cl)cc1C2,2.73,17.1,31.6,5.56,0.935,18.1,18.3,0.69,2.07,0.378,1.12,0.741,6.04,14,1.04,0.264,5.43,4.35,0.25,0.708
O=S(=O)(NCCCNc1cc(-c2cn(-c3ccccc3)nc2-c2cccc(O)c2)ccn1)c1ccc(F)cc1,21,21.6,8.91,48.9,14.2,10.7,10.1,13.9,9.14,3.36,12.9,5.11,4.49,2.56,3.82,3.76,3,3.06,3.64,2.79
COc1cc(C(=O)/C=C/c2c(C(F)(F)F)nc3ccccn23)cc(OC)c1OC,> 100,21.7,3.35,> 100,4.24,3.77,3.23,13.4,6.07,2.26,8.76,4.04,3.55,1.57,4.1,1.68,1.66,1.62,2.01,2.43
O=S(=O)(O)c1ccc2cc3nn(-c4ccc(/C=C/c5ccc(-n6nc7cc8ccc(S(=O)(=O)O)cc8cc7n6)cc5S(=O)(=O)O)c(S(=O)(=O)O)c4)nc3cc2c1,> 100,> 100,> 100,> 100,> 100,> 100,> 100,> 100,> 100,> 100,> 100,41.7,> 100,> 100,> 100,63.2,16.3,94.7,50.9,> 100
COc1ccc2c(c1)C(=O)c1c-2c(=O)n(CCCN(C)C)c2cc(OC)c(OC)cc12,22,> 100,–,25.3,20.8,15.6,> 100,11.4,> 100,11.3,23.3,7.03,3.39,–,12.6,1.71,1.6,86.1,0.273,> 100
Cc1cc2c(c(=O)o1)C1=S(SC(c3ccccc3)=C1)S2 (stereo not drawn),> 100,–,86.7,> 100,> 100,> 100,> 100,> 100,> 100,–,–,–,–,–,–,–,–,–,–,–
CC1CCN(CCOc2ccc(CNc3ccc4nc(CCC5CCCCC5)[nH]c4c3)cc2)CC1,–,3.48,3.17,8.18,3.35,3.1,3.08,3.34,3.41,1.64,3.07,–,1.63,1.71,2.62,1.7,1.67,1.7,1.72,1.83
CC1CCC2(C)C(CC=C(C=O)C2(O)C=O)C12CO2 (stereo not drawn),26.4,4.99,8.74,5.2,8.77,7.47,–,7.7,8.53,–,–,–,–,–,–,–,–,–,–,–
CC1=NNC(=S)NCCCN2CCN(CCCNC(=S)NN=C(C)C=NNC(=S)NCCCN3CCN(CCCNC(=S)NN=C1)CC3)CC2,> 100,> 100,> 100,> 100,> 100,> 100,> 100,–,> 100,–,> 100,–,–,–,–,–,–,–,–,–
Cc1ccc(-n2c(-c3cc4c([nH]c5ccccc54)c(-c4cccc(O)c4)n3)n[nH]c2=S)cc1,10.4,3.94,17.6,11,11.8,1.97,3.31,10.2,–,0.649,2.75,2.34,0.658,2.57,2.23,0.406,0.461,1.32,0.393,–
COc1ccc(-c2c3c(N)c4c(nc3nc3c2c(C)nn3-c2ccccc2)CCCC4)cc1,11,52.5,–,16.4,11.8,27,3.85,11.3,5.95,3.83,16.4,3.01,19.6,–,3.22,3.05,12,1.84,3.28,2.63
O=C(Cc1ccccc1)C(c1ccccc1)S(=O)(=O)c1ccccc1 (stereo not drawn),> 100,> 100,> 100,> 100,> 100,> 100,> 100,> 100,> 100,–,–,–,–,–,–,–,–,–,–,–
Clc1ccc([I+]c2ccc(Cl)cc2Cl)c(Cl)c1,7.71,–,3.61,4.52,3.75,3.36,20.3,5.39,5,1.96,4.33,2.66,–,1.73,1.95,1.25,1.77,6.04,2.35,2.62
CC1CCC2C(CN(CC3=C(C(F)(F)F)OC4OC5(C)CCC6C(C)CCC3C46OO5)CC3=C(C(F)(F)F)OC4OC5(C)CCC6C(C)CCC3C46OO5)=C(C(F)(F)F)OC3OC4(C)CCC1C32OO4 (stereo not drawn),66.3,57.8,23,33.4,–,–,–,30,> 100,4.54,17.3,12.1,19.4,6.73,10.2,–,–,–,12.9,36.6
O=C(CO)C1CC2C=CC1C2 (stereo not drawn),> 100,–,> 100,> 100,> 100,> 100,> 100,> 100,> 100,–,–,–,–,–,–,–,–,–,–,–

SMILES,TGI [1] [µM],TGI [2] [µM],TGI [3] [µM],TGI [4] [µM],TGI [5] [µM],TGI [6] [µM],TGI [7] [µM],TGI [8] [µM],TGI [9] [µM],GI50 [10] [µM],TGI [10] [µM],GI50 [1] [µM],GI50 [2] [µM],GI50 [3] [µM],GI50 [4] [µM],GI50 [5] [µM],GI50 [6] [µM],GI50 [7] [µM],GI50 [8] [µM],GI50 [9] [µM]
COC1=C(OC)[C@]2(OC)c3c(O)c(OC)c4c(c3O[C@@]23O[C@@H](c2ccccc2)CC=C3C1=O)[C@@H](OC)C[C@H](c1ccccc1)O4,5.02,–,1.38,2.15,0.933,3.31,1.96,2.56,–,0.301,1.1,2.21,–,0.377,0.667,0.178,1.58,0.739,1.09,–
Clc1nc(Cl)c2ncn(CCOCCn3cnc4c(Cl)nc(Cl)nc43)c2n1,1.3,3.2,0.464,0.707,0.44,0.35,1.38,0.463,–,0.204,0.466,0.312,1.56,0.221,0.283,0.212,0.185,0.37,0.217,–
c1ccc(-c2csc3ncn4cnnc4c23)cc1,> 100,> 100,–,> 100,> 100,> 100,> 100,–,> 100,–,–,–,–,–,–,–,–,–,–,–
O=C(c1ccco1)c1c(C(F)(F)F)n([O-])c2cc(F)c(F)cc2[n+]1=O,3.12,2.35,4.21,–,0.0132,0.459,1.23,5.78,12.8,0.553,3.45,1.32,0.926,2.06,–,–,–,0.256,0.252,2.93
CC(=O)[CH-]C(C)=O.CC(=O)[CH-]C(C)=O.CC(=O)[CH-]C(C)=O.[Ga+3],> 100,> 100,> 100,> 100,> 100,> 100,> 100,> 100,> 100,–,–,> 100,> 100,> 100,> 100,> 100,32.7,> 100,> 100,> 100
O=[N+]([O-])/C=C/c1ccc(Cl)cc1Cl,48.5,32.2,32.6,34.8,37.5,–,29.4,37.4,40.2,–,–,–,–,–,–,–,–,–,–,–
CC(N)CC(=O)O (stereo not drawn),> 5000,> 5000,> 5000,> 5000,> 5000,–,> 5000,> 5000,> 5000,–,–,–,–,–,–,–,–,–,–,–
CCOC(=O)C(Cc1ccc(N(CCCl)CCCl)cc1)NC(=O)C(Cc1ccccc1)NC(C)=O (stereo not drawn),> 1,> 1,–,0.0353,> 1,> 0.386,> 0.486,> 0.553,> 0.36,–,> 1,–,–,–,–,–,–,–,–,–
O=C(c1c(O)cc(O)cc1O)C1Cc2ccccc21 (stereo not drawn),> 100,> 100,> 100,> 100,> 100,> 100,> 100,> 100,> 100,–,–,–,–,–,–,–,–,–,–,–
c1ccc(C2CCCCC2)c(OCCCCCN2CCNCC2)c1,20.2,48.5,3.57,17,3.8,3.01,2.81,3.56,–,1.69,3.3,4.81,22.4,1.85,4.01,1.82,1.59,1.45,1.65,–
CCOC(=O)C(CCCNC(=O)OC(C)(C)C)N(Cc1ccc(OC)cc1OC)C(=O)CC(=O)CP(=O)(OCC)OCC (stereo not drawn),> 100,> 100,> 100,> 100,–,> 100,> 100,> 100,> 100,–,–,–,–,–,–,–,–,–,–,–
CN1C(=NCCO)NS(=O)(=O)c2ccccc21,> 100,> 100,–,> 100,> 100,> 100,> 100,> 100,> 100,–,> 100,–,–,–,–,–,–,–,–,–
CC(=O)OCC(CC[CH2][Sn]([Cl])([Cl])[c]1ccccc1)OC(C)=O (stereo not drawn),53,> 100,–,31.4,30.3,31.6,55.5,38.8,36.4,–,–,21.9,30.7,–,16.4,16.7,16.8,21.5,19.6,18.8
CN1CCCC1c1cccnc1.O=C(O)c1ccccc1O.O=C([O-])c1ccccc1[OH2+].O=C([O-])c1ccccc1[OH2+].[Mn+2] (stereo not drawn),> 100,> 100,76.6,> 100,> 100,> 100,> 100,–,> 100,> 100,> 100,> 100,> 100,33.1,> 100,64.3,> 100,> 100,–,54.3
N#CC1C(N)=NNC12Nc1ccccc1S2 (stereo not drawn),31.5,–,–,–,> 100,37.6,28.7,> 100,43.9,13.9,51.3,9.61,–,–,–,31.2,18.4,8.93,36.6,6.28
C[P+]1(c2ccccc2)CCCCC1,> 100,–,> 100,> 100,> 100,> 100,> 100,> 100,> 100,–,–,–,–,–,–,–,–,–,–,–
